According to patent EP0381533A2, “Cyclic monophosphates of purine and pyrimidine acyclonucleosides” (Merck & Co., Inc., priority 1989, dated 1990):

test system: Eisenhart Human Cytomegalovirus; experiment: Human Cytomegalovirus (HCMV) Plaque Reduction Assay; type: cell-based; conditions: MRC-5 cells (human fetal lung); ~60 PFUs; plaques counted on day 6 post inoculation
Method: Activity against Human Cytomegalovirus is determined by employing the Human Cytomegalovirus (HCMV) Assay. Two tissue culture assays are available; Cell Protection and Plaque Reduction. Both assays utilize MRC-5 cells (human fetal lung) and Eisenhart Human Cytomegalovirus. The following is a description of the Cell Protection and Plaque Reduction Assays.
Eight-two fold dilutions are made of the compound to be tested. After the dilutions are made, 0.5 ml of each dilution is added to each of three decanted wells of MRC-5. Two wells are used to determine the antiviral activity of the compound to be tested and one well is used to determine toxicity. The MRC-5 plates are then decanted, and the wells are infected with 0.1 ml of Human Cytomegalovirus inoculum containing ∼60 PFUs. The plates are then adsorbed for 1 hour at 37°C/5% CO₂. After one hour the virus is removed from the wells and duplicate wells are refed with dilutions of the compound to be tested. The plates are then incubated at 37°C/5% CO₂. Plaques are counted microscopically on day 6 post inoculation.

SMILES	Plag Red [µg/mL]
Nc1nc2c(ncn2COC(CO)CO)c(=O)[nH]1 [2-amino-1,9-dihydro-9-((2-hydroxy-1-(hydroxymethyl)-ethoxy)methyl)-6H-Purin-6-one]	0.78
Nc1ccn(COC2COP(=O)(O)OC2)c(=O)n1 (stereo not drawn) [Sodium 1-[(2-hydroxy-1,3,2-dioxophosphorinan-5-yl)-oxymethyl]cytosine P-oxide]	25.00
Nc1nc2c(ncn2COC2COP(=O)(O)OC2)c(=O)[nH]1 (stereo not drawn) [Sodium 9-[(2-hydroxy-1,3,2-dioxophosphorinan-5-yl)-oxymethyl]guanine P-oxide]	0.19
